Values joined by “and” are separate entries in the source; they are usually repeats but may differ in a detail not shown here. Equal values may be shown once. Read-outs that look alike come from different tables or passages of the source.
Experiments:
[1] = biological target: T1, mTRPA1 (Mus musculus, UniProt Q8BLA8); test: Ratiometric calcium imaging of CHO cells expressing mTRPA1; type: cell-based; details: for increase in intracellular free calcium: ratiometric calcium imaging
T1 construct: expressed in transfected cells; host or cells: CHO cells

[2] = test system: TRPM8; test: Calcium imaging of TRPM8-expressing CHO cells; type: cell-based
Description: We focused on the two mTRPA1-specific compounds. Using FLIPR, we determined the concentration for half maximal activation to be 61±9 μM for cinnamaldehyde and 22±3 μM for allyl isothiocyanate. […] Ruthenium red, a known blocker of mTRPA1, blocked the cinnamaldehyde response.
(§1) We next tested if specific inhibition of PLC by U-73122 would affect TRPA1 activation by bradykinin. […] We then tested if PLC inhibition of TRPA1 was stimulus specific. […] We further tested the role of PLC inhibition on TRPM8.

[3] = test system: B2R/TRPA1- expressing CHO cells; test: Calcium imaging of BK responses in B2R/TRPA1-expressing CHO cells; type: cell-based; details: 10 μM
Source text: as §1

[4] = test system: B2R-expressing cells; test: Calcium imaging of BK responses in B2R-expressing cells; type: cell-based; details: 10 μM
Source text: as §1

[5] = biological target: T2, mouse TRPA1 (Mus musculus, UniProt Q8BLA8); test: FLIPR intracellular calcium assay, mouse TRPA1-expressing CHO cells; type: cell-based; details: FLIPR; for increase in intracellular calcium upon application: mTRPA1 CHO cells; for EC50: mTRPA1
T2 construct: expressed in transfected cells; host or cells: CHO cells

[6] = biological target: TRPA1 (Homo sapiens, UniProt O75762); test: Thapsigargin response of cells transiently transfected with hTRPA1 and YFP reporter; type: cell-based; design: expressed in transfected cells; details: same coverslip
Source text: Phospholipase C (PLC) and phospholipase A2 are activated by BK signaling. Since many TRP channels are modulated by PLC activity, we tested whether downstream affectors of PLC can modulate TRPA1 function. One of the major consequences of PLC activation is the release of calcium from intracellular stores. We therefore tested if passive release of calcium from the stores with the […] endoplasmic reticulum Ca^2+-ATPase (SERCA) pump blocker thapsigargin could activate TRPA1 function. We examined the effect of thapsigargin on cells transiently-transfected with hTRPA1 and YFP reporter plasmid. This allowed for a direct comparison between TRPA1-expressing (YFP positive) and control (YFP negative) cells under the same experimental conditions (on the same coverslip).

[7] = test system: TRPV1; test: Calcium imaging of TRPV1-expressing CHO cells; type: cell-based
[8] = biological target: T3, TRPV4 (Homo sapiens, UniProt Q9HBA0); test: Calcium imaging of TRPV4-expressing CHO cells; type: cell-based
T3 construct: expressed in transfected cells; host or cells: CHO cells

[9] = biological target: T1, mTRPA1; test: Whole cell patch clamp of mTRPA1-expressing CHO cells; type: cell-based
Source text: (§2) We also characterized the cinnamaldehyde-induced current in mTRPA1 expressing CHO cells. […] Expression of either mouse or human TRPA1 (hTRPA1) in Xenopus oocytes rendered these cells responsive to cinnamaldehyde as well as to cold temperatures. […] Indeed, the cinnamaldehyde-induced current from mTRPA1-expressing oocytes rarely returned to baseline, even after washing out the compound.

[10] = biological target: T2, mouse TRPA1; test: Current recording in Xenopus oocytes expressing mouse TRPA1; type: cell-based
Source text: as §2

[11] = biological target: T4, human TRPA1 (hTRPA1) (Homo sapiens, UniProt O75762); test: Current recording in Xenopus oocytes expressing human TRPA1; type: cell-based
T4 construct: expressed in transfected cells; host or cells: Xenopus oocytes
Source text: as §2
Increased currents by repeated application of cinnamaldehyde (sensitization) in oocyte recordings is in contrast to strong desensitization to cinnamaldehyde observed in mTRPA1-expressing CHO cell.

[12] = biological target: T5, dTRPA1 (dANTKM1) (Drosophila melanogaster, UniProt Q7Z020); test: Current recording in oocytes expressing dTRPA1; type: cell-based
T5 construct: expressed in transfected cells; host or cells: oocytes (Xenopus, from the preceding sentences)
T5 sequence (Q7Z020 1-1197): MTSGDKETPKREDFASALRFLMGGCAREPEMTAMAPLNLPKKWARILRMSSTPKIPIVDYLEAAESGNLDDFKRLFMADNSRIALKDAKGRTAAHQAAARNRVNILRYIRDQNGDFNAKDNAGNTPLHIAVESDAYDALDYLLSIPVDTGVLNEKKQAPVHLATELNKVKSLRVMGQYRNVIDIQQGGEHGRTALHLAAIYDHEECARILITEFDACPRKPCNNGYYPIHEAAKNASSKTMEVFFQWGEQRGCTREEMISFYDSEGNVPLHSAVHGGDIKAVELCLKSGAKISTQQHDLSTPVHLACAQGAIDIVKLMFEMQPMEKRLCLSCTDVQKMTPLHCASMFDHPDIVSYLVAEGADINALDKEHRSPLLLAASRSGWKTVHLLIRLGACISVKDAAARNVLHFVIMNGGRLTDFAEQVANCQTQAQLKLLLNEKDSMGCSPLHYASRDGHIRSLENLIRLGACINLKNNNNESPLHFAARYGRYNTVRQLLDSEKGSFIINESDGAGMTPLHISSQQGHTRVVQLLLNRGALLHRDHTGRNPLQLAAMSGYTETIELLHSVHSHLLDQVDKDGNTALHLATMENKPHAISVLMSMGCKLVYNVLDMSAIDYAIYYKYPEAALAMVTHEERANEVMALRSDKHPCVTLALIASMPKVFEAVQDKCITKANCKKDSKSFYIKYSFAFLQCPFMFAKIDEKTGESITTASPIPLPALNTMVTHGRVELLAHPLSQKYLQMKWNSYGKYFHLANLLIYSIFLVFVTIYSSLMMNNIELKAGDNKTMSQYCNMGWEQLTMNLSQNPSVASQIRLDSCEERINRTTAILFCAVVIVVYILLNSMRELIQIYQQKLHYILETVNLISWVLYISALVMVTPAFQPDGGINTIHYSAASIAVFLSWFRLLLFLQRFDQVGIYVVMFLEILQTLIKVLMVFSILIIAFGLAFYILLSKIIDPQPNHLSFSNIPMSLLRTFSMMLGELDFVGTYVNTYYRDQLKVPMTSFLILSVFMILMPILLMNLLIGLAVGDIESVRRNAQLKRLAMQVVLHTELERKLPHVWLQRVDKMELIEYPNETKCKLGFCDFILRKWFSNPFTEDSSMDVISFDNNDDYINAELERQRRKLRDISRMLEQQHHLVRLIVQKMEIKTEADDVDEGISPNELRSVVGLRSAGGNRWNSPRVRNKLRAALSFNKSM

[13] = test system: adult rat DRG neurons; test: Calcium imaging of cultured adult rat DRG neurons; type: cell-based; details: 1.6 times the EC50
Source text: To further test this hypothesis, and to find out if the pungent compounds described above activate TRPA1 specifically, we performed calcium imaging of adult rat DRG neurons in response to cold, menthol, cinnamaldehyde, allyl isothiocyanate, and bradykinin. […] To a large extent, cinnamaldehyde and menthol activated mutually exclusive populations of cold-responsive neurons, as our model would predict. Allyl isothiocyanate appeared less specific as it activated 63% of the cold-responsive population (including a large overlap with menthol) and 12% of the cold-insensitive population. We have used 1.6 times the EC50 values of cinnamaldehyde and allyl isothiocyanate to enable us to directly compare DRG response profiles to these compounds. […] There were no significant differences in profiles of cinnamaldehyde and allyl isothiocyanate between cultures in the presence of 1 and 100 ng/ml of NGF.
In addition to the pungent sensory compounds, we have shown that BK can activate TRPA1.
To test if garlic extracts and allicin specifically activate TRPA1 in native neurons, we performed calcium imaging of adult rat DRG neurons. […] Addition of allicin or garlic extract to cultured rat DRG neurons activated a specific population of neurons.

[14] = Nociceptive behavior after intraplantar injection in mice; type: in vivo; details: for licking and shaking of the injected hindpaw: wildtype mice, intraplantar, five minutes post-injection, cinnamaldehyde 5 mM and 16.4 mM
[15] = Paw withdrawal latency to heat (hyperalgesia) after intraplantar injection; type: in vivo, mice
Description: To provide further evidence of the role of TRPA1 in pain sensation, we investigated if cinnamaldehyde injections could lead to hyperalgesia, an increased response to pain due to sensitization often caused by inflammation or injury. […] In contrast, no significant difference could be observed between the latencies of the two paws when vehicle was injected.
Hyperalgesia to heat is thought to involve sensitization of TRPV1. […] Note that paw withdrawal latencies to heat are higher in TRPV1^−/− mice, consistent with the partial heat sensitivity phenotype of these mice (Caterina et al., Science 288: 306-313, 2000; and Davis et al., Nature 405: 183-187, 2000). Therefore, the acute nociceptive response of cinnamaldehyde is independent of TRPV1, while the heat hyperalgesia is mediated through TRPV1.

[16] = biological target: T1, mTRPA1; test: Screen of cinnamaldehyde-like compounds in heterologous expression systems; type: cell-based; details: even in millimolar concentrations
[17] = test system: naïve CHO cells; test: Calcium response of naive CHO cells; type: cell-based; details: alone
Source text: Another downstream effect of PLC activity is the generation of Diacylglycerol (DAG). Therefore, we tested if l-Oleoyl-2-acetyl-sn-glycerol (OAG, a cell permeable analog of DAG) could activate TRPA1. […] OAG alone gives no response in naïve CHO cells. DAG can be converted to poly-unsaturated fatty acid (PUFAs) such as arachidonic acid (AA). […] AA can be converted to numerous metabolites, including prostaglandins. […] However, such a compound named 5,8,11,14-Eicosatetraynoic acid (ETYA) activated TRPA1- expressing CHO cells. Therefore, AA metabolism is not required for the activation of TRPA1.

T1 sequence (Q8BLA8 whole entry): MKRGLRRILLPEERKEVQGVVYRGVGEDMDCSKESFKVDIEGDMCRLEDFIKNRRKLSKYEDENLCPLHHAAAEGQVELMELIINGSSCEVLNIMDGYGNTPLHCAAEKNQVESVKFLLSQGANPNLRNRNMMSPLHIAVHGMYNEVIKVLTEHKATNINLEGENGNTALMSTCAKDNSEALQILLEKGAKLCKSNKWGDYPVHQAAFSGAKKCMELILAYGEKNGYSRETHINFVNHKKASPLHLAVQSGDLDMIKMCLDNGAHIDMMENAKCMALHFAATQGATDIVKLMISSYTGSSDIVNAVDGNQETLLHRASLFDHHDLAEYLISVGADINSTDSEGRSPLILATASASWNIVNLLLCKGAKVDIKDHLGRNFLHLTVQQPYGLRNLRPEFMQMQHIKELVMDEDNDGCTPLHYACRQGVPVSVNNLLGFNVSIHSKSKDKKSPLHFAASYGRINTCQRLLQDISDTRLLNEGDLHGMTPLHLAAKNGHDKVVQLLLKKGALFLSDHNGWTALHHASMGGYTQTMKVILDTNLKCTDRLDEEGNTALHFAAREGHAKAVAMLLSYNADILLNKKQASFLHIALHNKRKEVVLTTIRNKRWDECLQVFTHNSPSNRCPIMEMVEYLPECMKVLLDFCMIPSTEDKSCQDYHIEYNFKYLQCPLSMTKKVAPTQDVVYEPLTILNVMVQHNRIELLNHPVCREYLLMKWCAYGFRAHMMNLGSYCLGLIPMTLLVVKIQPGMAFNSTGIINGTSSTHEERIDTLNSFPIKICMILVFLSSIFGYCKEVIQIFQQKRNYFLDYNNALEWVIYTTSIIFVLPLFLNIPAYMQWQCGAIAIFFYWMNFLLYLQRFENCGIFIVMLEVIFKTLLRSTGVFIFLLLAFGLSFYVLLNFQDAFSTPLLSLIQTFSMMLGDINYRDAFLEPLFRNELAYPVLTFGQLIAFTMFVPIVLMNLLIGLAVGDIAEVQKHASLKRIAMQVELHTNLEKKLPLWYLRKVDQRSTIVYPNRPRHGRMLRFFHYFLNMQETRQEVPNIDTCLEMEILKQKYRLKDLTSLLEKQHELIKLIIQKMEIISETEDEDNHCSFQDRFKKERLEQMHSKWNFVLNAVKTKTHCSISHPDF
T2 sequence (Q8BLA8 whole entry): as above
T3 sequence (Q9HBA0 whole entry, species assumed): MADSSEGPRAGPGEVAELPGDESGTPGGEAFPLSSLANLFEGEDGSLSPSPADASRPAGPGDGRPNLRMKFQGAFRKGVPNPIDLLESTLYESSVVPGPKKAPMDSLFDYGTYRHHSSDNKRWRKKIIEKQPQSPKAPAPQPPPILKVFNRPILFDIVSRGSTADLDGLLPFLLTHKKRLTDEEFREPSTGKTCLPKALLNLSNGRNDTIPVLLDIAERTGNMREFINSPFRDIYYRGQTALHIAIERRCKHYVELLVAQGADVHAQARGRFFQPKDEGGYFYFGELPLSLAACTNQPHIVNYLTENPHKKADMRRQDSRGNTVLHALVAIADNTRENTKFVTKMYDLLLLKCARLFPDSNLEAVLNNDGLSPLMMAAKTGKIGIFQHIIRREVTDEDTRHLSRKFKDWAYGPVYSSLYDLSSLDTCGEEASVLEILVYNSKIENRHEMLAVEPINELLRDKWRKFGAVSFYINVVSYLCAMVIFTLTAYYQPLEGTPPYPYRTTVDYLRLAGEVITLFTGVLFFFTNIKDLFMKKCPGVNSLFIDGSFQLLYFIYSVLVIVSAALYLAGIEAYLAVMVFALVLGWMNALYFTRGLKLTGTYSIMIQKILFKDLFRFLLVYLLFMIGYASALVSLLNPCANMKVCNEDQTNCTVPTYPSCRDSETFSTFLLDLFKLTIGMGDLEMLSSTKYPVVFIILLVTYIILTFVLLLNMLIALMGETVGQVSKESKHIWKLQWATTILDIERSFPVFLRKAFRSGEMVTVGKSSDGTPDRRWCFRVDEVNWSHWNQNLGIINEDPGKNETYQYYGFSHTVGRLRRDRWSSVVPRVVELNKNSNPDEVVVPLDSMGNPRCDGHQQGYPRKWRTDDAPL
T4 sequence (O75762 whole entry): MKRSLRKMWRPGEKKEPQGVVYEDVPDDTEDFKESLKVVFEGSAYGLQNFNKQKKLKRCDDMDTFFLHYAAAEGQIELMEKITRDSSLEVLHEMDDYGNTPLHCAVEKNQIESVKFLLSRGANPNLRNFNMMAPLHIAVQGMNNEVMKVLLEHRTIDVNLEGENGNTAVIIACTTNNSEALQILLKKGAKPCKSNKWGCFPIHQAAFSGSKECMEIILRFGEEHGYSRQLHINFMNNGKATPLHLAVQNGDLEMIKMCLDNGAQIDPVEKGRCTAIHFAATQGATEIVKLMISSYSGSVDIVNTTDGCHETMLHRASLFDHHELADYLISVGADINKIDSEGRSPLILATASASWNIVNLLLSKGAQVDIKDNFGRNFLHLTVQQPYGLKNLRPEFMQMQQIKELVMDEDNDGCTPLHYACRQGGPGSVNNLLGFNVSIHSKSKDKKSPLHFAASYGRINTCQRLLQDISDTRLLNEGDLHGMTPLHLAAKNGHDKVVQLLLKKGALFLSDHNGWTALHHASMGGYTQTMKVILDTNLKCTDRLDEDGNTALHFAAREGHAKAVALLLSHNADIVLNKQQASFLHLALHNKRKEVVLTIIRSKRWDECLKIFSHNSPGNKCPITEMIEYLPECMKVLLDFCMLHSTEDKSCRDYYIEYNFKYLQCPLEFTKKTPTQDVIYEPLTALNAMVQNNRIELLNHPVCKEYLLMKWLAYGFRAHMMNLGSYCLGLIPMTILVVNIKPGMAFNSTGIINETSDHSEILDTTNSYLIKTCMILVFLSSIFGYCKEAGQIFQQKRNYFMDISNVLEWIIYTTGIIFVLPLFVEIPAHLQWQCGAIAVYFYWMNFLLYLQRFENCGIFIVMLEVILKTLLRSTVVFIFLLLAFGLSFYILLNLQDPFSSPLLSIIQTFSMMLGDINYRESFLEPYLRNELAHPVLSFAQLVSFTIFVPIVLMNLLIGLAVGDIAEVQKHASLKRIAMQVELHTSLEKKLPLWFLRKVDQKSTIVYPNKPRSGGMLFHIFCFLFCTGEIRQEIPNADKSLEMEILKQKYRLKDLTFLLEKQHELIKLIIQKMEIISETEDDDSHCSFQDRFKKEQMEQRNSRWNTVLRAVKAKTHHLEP
Chain of TRPA1 (O75762 whole entry): as above

## COc1ccc2c(c1)CC[C@@H]1[C@@H]2CC[C@]2(C)[C@@H](NCCCCCCN3C(=O)C=CC3=O)CC[C@@H]12 [U-73122]
[1]; stimulus cinnamaldehyde
  effect on TRPA1 activation by cinnamaldehyde: inhibited
[1]; stimulus cold
  effect on TRPA1 activation by cold: strongly downregulated
[2]; preincubation necessary for menthol block
  effect on cold- and menthol-induced responses of TRPM8: strongly dowregulated
[3]
  inhibition of BK responses in B2R/TRPA1-expressing CHO cells: inhibited
[4]
  inhibition of BK responses in B2R-expressing cells: inhibited

## C=CCc1ccc(O)c(OC)c1 [Eugenol]
[5]
  increase in intracellular calcium upon application: sharp increase in intracellular calcium

## C/C=C(/C)C(=O)O[C@H]1C(C)=C2[C@H]([C@@H]1OC(=O)CCCCCCC)[C@@](C)(OC(C)=O)C[C@H](OC(=O)CCC)[C@@]1(O)[C@H]2OC(=O)[C@@]1(C)O [thapsigargin]
[6]
  response in YFP-positive (TRPA1-expressing) cells compared with control cells: slightly smaller than in YFP-negative cells

## COc1ccc2c(c1)CC[C@@H]1[C@@H]2CC[C@]2(C)[C@@H](NCCCCCCN3C(=O)CCC3=O)CC[C@@H]12 [U-73343]
[3]
  inhibition of BK responses in B2R/TRPA1-expressing CHO cells: not
[4]
  inhibition of BK responses in B2R-expressing cells: not

## N.N.N.N.N.N.N.N.N.N.N.N.N.N.[Cl-].[Cl-].[Cl-].[Cl-].[Cl-].[Cl-].[O-2].[O-2].[Ru+3].[Ru+3].[Ru+4] [Ruthenium red]
[1]; stimulus AA
  block of AA activation: blocked
[1]; stimulus OAG
  block of the OAG response: blocked
[1]; stimulus cinnamaldehyde
  block of the cinnamaldehyde response: blocked

## O=CC=Cc1ccccc1 [cinnamaldehyde]
[5]
  specificity to mTRPA1 when tested against TRPM8 and TRPV1: specific to mTRPA1
  increase in intracellular calcium upon application: sharp increase in intracellular calcium
[5]; concentration for half maximal activation (EC50)
  EC50: 61 µM and ~61 µM
[1]
  increase in intracellular free calcium: robust increase in intracellular free calcium
[7]
  activation of TRPV1-expressing CHO cells: did not activate
[8]
  activation of TRPV4-expressing CHO cells: did not activate
[2]
  activation of TRPM8-expressing CHO cells: did not activate
[9]
  elicited current: robust desensitized current
[10]
  response of mouse TRPA1-expressing oocytes: responsive
[11]
  response of human TRPA1-expressing oocytes: responsive
[11]; repeated applications, n=6
  current of second pulse relative to first pulse: 250±23%
[12]
  response of dTRPA1-expressing oocytes: did not respond
[13]
  share of cold-activated (cold-responsive) DRG neurons activated: 39%
  share of cold-insensitive neurons activated: 1%
[14]; TRPV1−/− mice
  response to injection: responded
[14]
  licking and shaking of the injected hindpaw: induced licking and shaking of the injected hindpaw
[15]; TRPV1−/− mice
  heat hyperalgesia: absent
[15]; thirty minutes after injection, p=0.009
  paw withdraw latency, injected compared to control paws: significantly lowered

## C=CCN=C=S [allyl isothiocyanate]
[5]
  specificity to mTRPA1 when tested against TRPM8 and TRPV1: specific to mTRPA1
  increase in intracellular calcium upon application: sharp increase in intracellular calcium
[5]; read-out: concentration for half maximal activation (EC50)
  EC50: 22 ± 3 µM
[1]
  increase in intracellular free calcium: robust increase in intracellular free calcium
[7]
  activation of TRPV1-expressing CHO cells: did not activate
[8]
  activation of TRPV4-expressing CHO cells: did not activate
[2]
  activation of TRPM8-expressing CHO cells: did not activate
[13]
  share of cold-activated (cold-responsive) DRG neurons activated: 63%
  share of cold-insensitive neurons activated: 12%

## CCCCCC#CCC#CCC#CCC#CCCCC(=O)O [ETYA, 5,8,11,14-Eicosatetraynoic acid]
[1]
  activation of mTRPA1/TRPA1-expressing CHO cells: activated

## O=C(O)C=Cc1ccccc1 [Cinnamic acid, reference compound]
[14]
  licking and shaking of the injected hindpaw: not observed
[16]
  activation of mTRPA1: did not activate

## CCCCCCCC/C=C\CCCCCCCC(=O)OC[C@H](CO)OC(C)=O [OAG, l-Oleoyl-2-acetyl-sn-glycerol]
[1]
  activation of mTRPA1/TRPA1-expressing CHO cells: robust response
[17]
  response in naïve CHO cells: no response

## CCCCC/C=C\C/C=C\C/C=C\C/C=C\CCCC(=O)O [AA, arachidonic acid]
[1]
  activation of mTRPA1/TRPA1-expressing CHO cells: activated

## CCCCC[C@H](O)CC(=O)CCc1ccc(O)c(OC)c1 [Gingerol]
[5]
  increase in intracellular calcium upon application: sharp increase in intracellular calcium

— patent publication US20070196866A1, “Modulators of ion channel trpa1” (IRM LLC, priority 2004, published 2007)
